Patent US5795907A, “Gastin and CCK receptor ligands” (James Black Foundation Limited, priority 1994, dated 1998)

Tests used:
[1] = target: T1, CCKB receptor (Mus musculus, UniProt P56481); assay: CCKB receptor radioligand binding assay in mouse cortical membranes ([125I]-CCK8S); conditions: [125I]-CCK8S 200 pM, 150 min at 21±3°; for Ki: read-out: CCKB pKi (converted)
T1 construct: The cortex was dissected, weighed and homogenised in 40ml ice-cold buffer; tissue Charles River (supplier of the CD1 mice); host or cells: cerebral cortex membranes of male CD1 mice
T1 sequence (P56481 1-453): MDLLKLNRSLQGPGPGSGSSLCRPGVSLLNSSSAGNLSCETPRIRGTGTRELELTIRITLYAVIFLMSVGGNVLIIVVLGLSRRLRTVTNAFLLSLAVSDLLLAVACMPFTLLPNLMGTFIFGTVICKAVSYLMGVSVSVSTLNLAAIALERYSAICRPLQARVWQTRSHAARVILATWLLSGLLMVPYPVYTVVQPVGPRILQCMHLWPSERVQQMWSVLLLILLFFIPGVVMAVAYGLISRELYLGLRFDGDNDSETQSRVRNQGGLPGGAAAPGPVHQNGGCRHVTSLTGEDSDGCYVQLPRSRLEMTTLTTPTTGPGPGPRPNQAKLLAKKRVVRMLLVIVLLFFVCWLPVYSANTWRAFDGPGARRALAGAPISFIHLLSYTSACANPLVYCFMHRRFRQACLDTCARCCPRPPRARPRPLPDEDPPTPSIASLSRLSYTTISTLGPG
How it was run: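 Cortical membranes from male CD1 mice in HEPES buffer (pH 7.2; NaCl, KCl, MgCl2, EDTA, bacitracin) were incubated with competing compound and [125I]-CCK8S (added as a 200 pM solution) for 150 min at 21±3°. Non-specific binding was defined with L-365,260. Bound tracer was separated by GF/B filtration and counted by gamma counting.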

[2] = target: T2, gastrin (Rattus norvegicus, UniProt P30553); assay: gastrin antagonist activity in an immature rat stomach assay (pentagastrin-stimulated acid secretion); conditions: cumulative pentagastrin dose-response curves after 60 min with drug; for Kb: read-out: Gastrin pKB (converted)
T2 construct: The stomach was lowered into a jacketed organ bath containing 40 ml of buffered solution; from tissue; host or cells: isolated perfused whole stomach of immature rats (ca. 21 days old)
T2 sequence (P30553 1-452): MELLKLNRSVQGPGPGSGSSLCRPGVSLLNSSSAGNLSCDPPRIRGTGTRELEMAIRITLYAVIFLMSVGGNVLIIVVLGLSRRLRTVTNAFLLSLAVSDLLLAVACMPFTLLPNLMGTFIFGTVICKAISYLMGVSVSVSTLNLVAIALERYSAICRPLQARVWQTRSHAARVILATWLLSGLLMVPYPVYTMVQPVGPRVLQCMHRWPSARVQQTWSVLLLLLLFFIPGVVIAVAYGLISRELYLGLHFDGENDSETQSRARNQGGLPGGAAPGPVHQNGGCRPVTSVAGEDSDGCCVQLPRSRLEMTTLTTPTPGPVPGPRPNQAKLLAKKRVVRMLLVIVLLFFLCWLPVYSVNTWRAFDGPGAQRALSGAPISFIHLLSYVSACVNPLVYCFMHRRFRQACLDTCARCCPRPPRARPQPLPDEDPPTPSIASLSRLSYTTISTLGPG
How it was run: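 Isolated lumen-perfused immature rat stomach (33-50 g, ca. 21 days) in 37° organ bath with 3×10^-8 M 5-methylfurmethide; acid secretion read by pH electrode in perfusate. Compound added to serosal bath after 120 min stabilisation; cumulative pentagastrin dose-response curves begun 60 min later and analysed by the Black et al. method.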

[3] = target: T3, CCKA (Cavia porcellus, UniProt Q63931); assay: CCKA radioligand binding assay in guinea-pig pancreas membranes ([125I]-CCK8(S)); conditions: PD134,308 present, 150 minutes at 21±3°; for Ki: read-out: CCKA pKi (converted)
T3 construct: The pancreatata were homogenised in 40 ml ice-cold HEPES buffer using a polytron; from tissue; host or cells: pancreas membranes of male Dunkin Hartley guinea-pigs
T3 sequence (Q63931 1-430): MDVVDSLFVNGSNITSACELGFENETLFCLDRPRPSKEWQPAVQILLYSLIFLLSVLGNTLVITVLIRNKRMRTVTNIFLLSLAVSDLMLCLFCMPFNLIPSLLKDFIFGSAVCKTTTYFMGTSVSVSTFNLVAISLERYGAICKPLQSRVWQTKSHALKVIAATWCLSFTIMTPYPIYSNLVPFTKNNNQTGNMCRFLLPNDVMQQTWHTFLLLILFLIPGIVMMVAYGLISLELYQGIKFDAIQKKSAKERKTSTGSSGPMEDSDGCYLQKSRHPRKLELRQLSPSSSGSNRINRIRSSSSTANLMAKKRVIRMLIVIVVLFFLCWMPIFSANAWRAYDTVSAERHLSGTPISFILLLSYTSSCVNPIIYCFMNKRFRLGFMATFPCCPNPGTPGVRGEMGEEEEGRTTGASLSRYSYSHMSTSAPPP
How it was run: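 Male guinea-pig pancreas membranes (1 mg/ml wet tissue in HEPES pH 7.2, suspension containing 0.375 μM PD134,308) were incubated 150 min at 21±3° with [125I]-CCK8(S) ([…] added solution) and competitor. Non-specific binding used 100 nM L-364,718 (added solution). Bound radioligand was measured by GF/B filtration and gamma counting.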

| CCKB pKi [1] | Gastrin pKB [2] | CCKA pKi [3] | Ki [1] [nM] | Kb [2] [nM] | Ki [3] [nM] | Compound |
| --- | --- | --- | --- | --- | --- | --- |
| 6.4 | 6.8 | 4.9 | – | – | – | 5-(1S-(3-methoxycarbonyl-5-pivaloyloxymethyloxycarbonyl-phenylaminocarbonyl)-2-phenylethylaminocarbonyl)-6-(1-adamantanemethylaminocarbonyl)-indole and regioisomer with substituents at positions 5 and 6 reversed [Example 39] |
| 6.2 | 6.8 | 5.1 | – | – | – | 5-(2R-(1R-carboxyethylaminocarbonyl)pyrrolidinocarbonyl)-6-(1-adamantanemethylaminocarbonyl)-indole [Example 89] |
| 7.6 | 8.2 | 5.6 | – | – | – | Nc1cccc2cc(C(=O)N[C@@H](Cc3ccccc3)C(=O)Nc3cc(C(=O)O)cc(C(=O)O)c3)c(C(=O)NCC34CC5CC(CC(C5)C3)C4)cc12 [Example 115, 2-(1S-(3,5-dicarboxyphenylaminocarbonyl)-2-phenylethylaminocarbonyl)-3-(1-adamantanemethylaminocarbonyl)-5-aminonaphthalene] |
| 6.5 | 6.8 | 4.9 | – | – | – | 5-(1S-(3,5-di-methylsulphonylaminophenylaminocarbonyl)-2-phenylethylaminocarbonyl)-6-(1-adamantanemethylaminocarbonyl)-indole [Example 92] |
| 8.1 | 9.2 | 5.4 | – | – | – | 5-(1R-(3,5-dicarboxyphenylaminocarbonyl)-2-phenylethylaminocarbonyl)-6-(1-adamantanemethylaminocarbonyl)-indole and regioisomer with substituents at positions 5 and 6 reversed [Example 29] |
| – | – | – | 15.8 | 63.1 | 398 | O=C(NCC12CC3CC(CC(C3)C1)C2)c1cc2nc[nH]c2cc1C(=O)N[C@@H](Cc1ccccc1)C(=O)Nc1cccc(-c2nn[nH]n2)c1 [Example 83, 5-(1S-(3-tetrazolylphenylaminocarbonyl)-2-phenylethylaminocarbonyl)-6-(1-adamantanemethylaminocarbonyl)-benzimidazole] |
| 6.0 | 6.3 | 5.6 | – | – | – | C[C@H](NC(=O)c1cc2[nH]cnc2cc1C(=O)NCC1CCCCCC1)C(=O)Nc1cc(C(=O)O)cc(C(=O)O)c1 [Example 72, 5-(1S-(3,5-dicarboxyphenylaminocarbonyl)-ethylaminocarbonyl)-6-(cycloheptanemethylaminocarbonyl)-benzimidazole] |
| – | – | – | 3160 | 501 | 3980 | O=C(NCC12CC3CC(CC(C3)C1)C2)c1cc2ccccc2cc1C(=O)N1CCC[C@H]1C(=O)O [Example 4, 2-(2S-carboxypyrrolidino-carbonyl)-3-(1-adamantanemethylaminocarbonyl)-naphthalene] |
| 8.2 | 8.0 | 5.3 | – | – | – | O=C(O)c1cccc(NC(=O)[C@H](Cc2ccccc2)NC(=O)c2cc3cc[nH]c3cc2C(=O)NCC23CC4CC(CC(C4)C2)C3)c1 [Example 90, 5-(1S-(3-carboxyphenylaminocarbonyl)-2-phenylethylaminocarbonyl)-6-(1-adamantanemethylaminocarbonyl)-indole] |
| 7.8 | – | – | – | 7.94 | 2510 | O=C(O)c1cc(NC(=O)[C@H](Cc2ccc(O)cc2)NC(=O)c2cc3[nH]cnc3cc2C(=O)NCC23CC4CC(CC(C4)C2)C3)cc(C(=O)O)c1 [Example 60, 5-(1S-(3,5-dicarboxyphenylaminocarbonyl)-2-(4-hydroxyphenyl)ethylaminocarbonyl)-6-(1-adamantanemethyaminocarbonyl)-benzimidazole] |
